# Patent publication EP0167553B1, “NEW THERAPEUTICAL APPLICATION OF AN INDANE DIONE DERIVATIVE AND PHARMACEUTICAL COMPOSITIONS INTENDED TO SAID UTILIZATION” (priority 1983, dated 1985)
# Columns and labels:
# Rat Wistar = assay: Hyperlipidaemia induced by Triton WR 1339 injection; type: in vivo; parameters: Triglycérides, score par rapport au Procétofène 250 mg/kg: scale not given here
# From the text: L'hyperlipidémie par injection de Triton WR 1339 (marque de fabrique), réalisée chez le Rat Wistar, est antagonisée ou diminuée par l'administration d'agents hypolipémiants.
# • - Rats Wistar mâles. • - Poids corporel: 150 -180 grammes. • - Animaux E.O.P.S. (Exempts d'Organisme Pathogène Spécifique). • - Alimentation UAR A04 • - Eau de boisson à volonté • - 6 animaux par lot de traitement et par cage MAKROLON SAFI (marque de fabrique) 60 X 40 cm, sur litière de copeaux de bois dépoussiérés • - Cages placées dans un module animalerie climatisé (19 à 21°C) à degré hygrométrique constant (40 à 60 p.100), dans lequel l'air est renouvelé 10 fois par heure, 12 heures d'éclairement par jour.
# • . - 18 h: mise à jeun. • . Temps 0 - administration du Triton WR 1339® (400 mg/kg IP.). • . + 10 mn: administration du produit étudié. • - + 6 h: 1er prélèvement sanguin au sinus rétro-orbitaire. • . + 24 h: 2ème prélèvement sanguin au sinus rétro-orbitaire.
# L'essai comporte 8 lots dont un lot témoin (animaux sains) et un lot témoin triton (Tableau I).
# Rats: Wistar femelles [1] = assay: Atherogenic diet (modified Aubert technique): biochemical examinations and atherogenic risk; type: in vivo, Rat Wistar; parameters: score général Biochimie / Risque athérogène Score Total: scale not given here; conditions: 100 mg/kg
# From the text: (§1) La technique utilisée est celle, légèrement modifiée, de AUBERT D., FERAUD J.C., LACAZE B., PEPINO., PANAK E. et PODESTA M. "Athérogénèse expérimentale chez le Rat Wistar". ATHEROSCLEROSIS 2Q (1974) 263 - 280.
# (§2) • - Rats: Wistar femelles, E.O.P.S. en provenance de l'élevage EVIC-CEBA. • - Poids corporel: 160 180 g au départ de l'étude • - Alimentation: UAR A03, enrichi en cholestérol (0,5 %) et en Acide chloique (0,5 %). • - Eau de boisson: eau de ville. • - 15 animaux par lot et par cage MAKROLON SAFI® de 59 x 38,5 cm sur litière de copeaux de bois blanc dépoussiérés. • - Cages placées dans un module animalerie climatisé (20°C * 1°C), à l'humidité constante (50 % ± 10 %). Durée d'éclairement: 12 heures par jour (7 h à 19 h). • - Administration des produits: Après 15 jours de régime athéromateux, on leur administre par voie orale pendant 4 jours 250 000 Ul/kg de vitamine D2 (Stérogyl 15 H) en solution dans l'huile d'olive. On administre ensuite les produits à étudier pendant 4 semaines dès la fin de l'administration de l'agent lésionnel.
# (§3) L'étude porte sur 5 Lots de 15 rats (tableau N° IV)
# En fin d'étude, on pratique sur tous les animaux survivants les examens suivants: • - Cholestérol total, • - Cholestérol estérifié, • - Cholestérol HDL • - Cholestérol LDL (évaluation), • - Lipides totaux, • - Triglycérides.
# Rats: Wistar femelles [2] = assay: Atherogenic diet (modified Aubert technique): macroscopic examination of the aorta; type: in vivo, Rat Wistar; conditions: 100 mg/kg
# From the text: as §1, §2
# En fin d'étude, tous les animaux sont sacrifiés par ponction subtotale du sang à l'aorte abdominale après anesthésie au pentobarbital sodique. On prélève le coeur, le foie et l'aorte sur laquelle on effectue la cotation du pouvoir athérogène. Pour ce faire, les aortes sont coupées longitudinalement puis étalées pour permettre une vue d'ensemble du revêtement endothélial depuis les valvules aortiques jusqu'à la bifurcation du tronc coeliaque (segment inférieur de l'aorte thoracique).
# L'aorte est séparée en 2 zones: • - Zone 1: Valvules aortiques - premières artères intercostales • - Zone 2: premières artères intercostales - bifurcation du tronc coeliaque.
# L'intensité des dépôts athéromateux est évaluée selon les critères suivants: • - Stade 0: Absence de dépôts • - Stade 1: Dépôts discrets ([…]) peu nombreux • - Stade 2: Dépôts discrets nombreux • - Stade 3: Dépôts importants (> 1 mm) nombreux • - Stade 4: Dépôts très importants ou très nombreux mais laissant quelques zones non infiltrées. • - Stade 5: Dépôts sur tout l'endothélium.
# Deux paramètres sont à prendre en considération: • 1. Le nombre d'animaux présentant des lésions macroscopiques, dont le pourcentage d'animaux atteints. • 2. L'intensité des lésions observées cotées selon les indications fournies précédemment.
# Rats: Wistar femelles [3] = assay: Atherogenic diet (modified Aubert technique): histopathological examination; type: in vivo, Rat Wistar; conditions: 100 mg/kg; three parameters scored relative to Clofibrate
# From the text: as §1, §2
# Les aortes, les foies et les coeurs sont fixés au Bouitaqueux et inclus à la paraffine après passage par les alcools à concentration croissante et par le toluène.
# Les foies sont colorés par la technique à l'hématéine-éosine. Les aortes sont colorées par: • - la technique à l'orcéine - vert lumière afin de mettre en évidence les altérations structurales des lames élastiques. • - la technique à l'acide périodique plus réactif de Schiff pour déceler les dépôts de mucopolysaccharides, • - la technique à l'hématéine plus éosine afin de mettre en évidence les dépôts de calcium.
# L'intensité des altérations observées et le degré d'athéromatose sont indiquées par l'un des signes:
# • - Pas d'athéromatose 0 • = Très léger degré d'athéromatose 0,5 • + Léger degré d'athéromatose 1 • ++ Moyen degré d'athéromatose 2 • +++Important degré d'athéromatose 3
# Les zones athéromateuses sont dénombrées sur une longueur identique pour chacune des aortes examinées. […]
# Rats: Wistar femelles [4] = assay: Atherogenic diet (modified Aubert technique): mortality, body weight, tolerance, overall score; type: in vivo, Rat Wistar; conditions: 100 mg/kg
# Method: as §2, §3
# • - Le comportement et l'[…] pondérale des animaux sont étudiés par l'observation quotidienne et les pesées hebdomadaires. L'étude de l'évolution pondérale ne montre pas de différence significative entre les différents lots. C'est un indice de bonne tolérance du traitement. • - La moralité est notée dans chaque lot; elle peut atteindre 30 % des animaux ce qui nécessite des lots de 15 animaux. L'administration chronique de 100 mg/kg de Clofibrate correspond à la dose maximale tolérée par le Rat sain selon nos expériences personnelles.
# Les scores obtenus par les différents produits étudiés sont les suivants (Tableau V)
# [5] = 250 mg/kg, 6 heures after Triton
# [6] = 250 mg/kg, 24 heures after Triton
# [7] = 500 mg/kg, 6 heures after Triton
# [8] = 500 mg/kg, 24 heures after Triton
# [9] = 4 weeks, score relative to Clofibrate (Base 1)
smiles,measurement,setting,value
"CC(C)OC(=O)C(C)(C)Oc1ccc(C(=O)c2ccc(Cl)cc2)cc1 [Procétofène, reference compound]","Chol. HDL/ LDL, score par rapport au Procétofène 250 mg/kg",Rat Wistar; [5],1.00
same,"Chol. Total, score par rapport au Procétofène 250 mg/kg",Rat Wistar; [5],1.00
same,"Lipides Totaux, score par rapport au Procétofène 250 mg/kg",Rat Wistar; [5],1.00
same,Score Total par rapport au Procétofène 250 mg/kg,Rat Wistar; [5],4.00
same,"Triglycérides, score par rapport au Procétofène 250 mg/kg",Rat Wistar; [5],1.00
same,"Chol. HDL/ LDL, score par rapport au Procétofène 250 mg/kg",Rat Wistar; [6],1.00
same,"Chol. Total, score par rapport au Procétofène 250 mg/kg",Rat Wistar; [6],1.00
same,"Lipides Total, score par rapport au Procétofène 250 mg/kg",Rat Wistar; [6],1.00
same,Score Total par rapport au Procétofène 250 mg/kg,Rat Wistar; [6],4.00
same,"Triglycérides, score par rapport au Procétofène 250 mg/kg",Rat Wistar; [6],1.00
same,"Chol. HDL/ LDL, score par rapport au Procétofène 250 mg/kg",Rat Wistar; [7],1.53
same,"Chol. Total, score par rapport au Procétofène 250 mg/kg",Rat Wistar; [7],1.65
same,"Lipides Totaux, score par rapport au Procétofène 250 mg/kg",Rat Wistar; [7],1.65
same,Score Total par rapport au Procétofène 250 mg/kg,Rat Wistar; [7],5.12
same,"Chol. HDL/ LDL, score par rapport au Procétofène 250 mg/kg",Rat Wistar; [8],0.30
same,"Lipides Total, score par rapport au Procétofène 250 mg/kg",Rat Wistar; [8],0.85
same,Score Total par rapport au Procétofène 250 mg/kg,Rat Wistar; [8],3.33
CC(C)OC(=O)C(C)(C)Oc1ccc(C(=O)c2ccc(Cl)cc2)cc1 [Fenclofibrate],Cholesterol LDL Cholesterol HDL Score/Clofibrate,Rats: Wistar femelles [1],0.16
same,Cholesterol T/ Cholesterol HDL Score/Clofibrate,Rats: Wistar femelles [1],0.07
same,Risque athérogène Score Total,Rats: Wistar femelles [1],0.23
same,Cholesterol E Score,Rats: Wistar femelles [1]; [9],0.40
same,Cholesterol HDL Score,Rats: Wistar femelles [1]; [9],0.04
same,Cholesterol LDL Score,Rats: Wistar femelles [1]; [9],0.16
same,Cholesterol T Score,Rats: Wistar femelles [1]; [9],0.02
same,Lipides totaux Score,Rats: Wistar femelles [1]; [9],0.29
same,Cholesterol LDL Cholesterol HDL Score,Rats: Wistar femelles [1]; atherogenic risk ratio,21.44
same,Cholesterol T/ Cholesterol HDL Score,Rats: Wistar femelles [1]; atherogenic risk ratio,25.32
same,score général Biochimie,Rats: Wistar femelles [1]; sum of the individual biochemical scores,1.98
same,Animaux Atteints Score Clofibrate,Rats: Wistar femelles [2],0.92
same,Intensité des lésions Score Clofibrate,Rats: Wistar femelles [2],1.25
same,Observations Macroscopiques Score Total,Rats: Wistar femelles [2],2.17
same,Animaux Atteints %,Rats: Wistar femelles [2]; animals with macroscopic lesions,83.33%
same,Intensité des lésions Cotation,Rats: Wistar femelles [2]; scale Stade 0 to Stade 5,1.83
same,Histologie score,Rats: Wistar femelles [3],2.13
same,taux de mortalité,Rats: Wistar femelles [4]; lots of 15 rats on atherogenic diet,3/15
same,Score Total,"Rats: Wistar femelles [4]; sum of Biochimie, Risque athérogène, Macroscopie, Histologie",6.51
